Read-outs that look alike come from different tables or passages of the source. Marks after values point to notes of the source that are not given here. Non-standard residues stand in square brackets, D forms with d. Aib = CC(C)(N)C(=O)O
Tests used:
BV2 microglial cells = tested on: BV2 microglial cells
Method: For suppression of inflammation profiling, each peptide analog was tested at a final concentration of 0.1, […], 1, 3, 5, 10 and 25 μM in an LPS induced BV2 microglial cell release of NO and/or TNFα. […] The modification was a biotin label on the apoE peptide (biotin-[…]-amide) which allows detection with ^125I-streptavidin (ISA, Amersham).
In overview, BV-2 cells are plated in 96 well plates in complete media and then the media is replaced the next day with serum free media or reduced serum (1%) media. […] Each concentration of peptide (standard initial concentrations are 0.1, 0.5, 1, 3, 10 and 25 μM) is added to at least 6 wells of cells (e.g. 6 wells get 0.1 μM peptide, 6 wells get 0.5 μM peptide, etc.) and data are averaged from all 6 wells. […] (2001). Cell viability is also measured with an MTT assay (Laskowitz et al. 2001).

[1] = tested on: BV2 murine microglial cells
Method: For Applicants preliminary work, the two most common PTDs, TAT and penetratin, were used.
Cell Culture: BV-2, a well-characterized murine microglial cell line (Bochinni, 1992), is cultured in high glucose content DMEM supplemented with 1% penicillin/streptomycin, 10% fetal calf serum, 1% nonessential amino acids, and 1% sodium pyruvate. Cells are grown to confluency; trypsinized; spun down; resuspended in serum-free OptiMEM containing 1% N2 supplement, 1% penicillin/streptomycin, 1% nonessential amino acids, and 1% sodium pyruvate; and plated at a concentration of 20,000 cells/well to remove any nonadherent cells and serum.
Supernatant is collected 24 and/or 48 h after LPS stimulation and assayed for nitrite.
Quantification of Nitric Oxide (NO): Accumulation of nitrite (stable end product of NO production) in the medium is measured by colometric Griess reagent system (Promega); the absorbance is determined at 540 nm.
Cell Viability Assay: Cell viability is measured using a nonradioactive cell viability assay (cell titer 96 AQ, Promega). The assay measures the bioreduction of MTS (3-(4,5-dimethylthiazole-2-)-5-(3-carboxymethoxyphenyl)-2-(4-sulfophenyl)-2H-tetrazolium by viable cells into formazan. The absorbance of the calorimetric assay is measured at λ 490 nm. Viability is assessed and used to normalize the nitrite data.

[2] = tested on: mice with traumatic brain injury; test: Closed head injury model of traumatic brain injury (rotorod, Morris Water Maze); details: for In vivo Therapeutic window time expanded?: mouse
Method: C57Bl/6J male mice (The Jackson Laboratory, ME), 12-16 weeks of age and weighing 24-32 g, are used for all experiments. Anesthesia is first induced with isoflurane in 30% O2/balance N2. The trachea is intubated and the lungs mechanically ventilated with 1.6% isoflurane in 30% O2/balance N2. Temperature is monitored with a rectal probe and maintained at 36.5° C. with a heat lamp. The right internal jugular vein is cannulated with silicone catheter. […] Intubated animals are then placed prone on a molded acrylic cast (FIG. 6A). […] The scalp is incised and the skull exposed. A concave 3 mm metallic disc is secured to the skull surface (with the concave surface in juxtaposition to the skull) by an adhesive. […] The disc is placed directly midline just caudal to bregma (FIG. 6B). […] The mice are positioned in a stereotactic frame. Although the stereotactactic frame helps to stabilize the animal and exactly calibrate the vertical displacement on impact (3 mm), ear bars are not used due to a much higher rate of skull fracture (or brainstem injury if the head rotates around the axis of the ear bars during impact). The piston is discharged at 6.8±0.2 m/s so as to impact the skull in the acrylic mold to move a maximum of approximately 3 mm (FIG. 6C). Inspired isoflurane is decreased to 0.7% immediately after impact. The scalp was infiltrated with lidocaine and closed with suture. Ophthalmic ointment was applied to the eyes for protection. The incidence of skull fracture is low (approximately 10%), as the metal disk helps to diffuse the impact, and the absence of ear bar fixation allows for displacement of the entire head. Mice were excluded if a depressed skull fracture was observed (incidence of approximately 10%). The animals are allowed to recover spontaneous ventilation then extubated. […] In these mice, arterial blood pressure, blood gas and glucose measurement at baseline, immediately after injury, and 15 minutes after injury are monitored during the recovery period.
Briefly, baseline performance on rotorod is established before the mice are intubated, the skin over the scalp reflected and a controlled cortical impact from a pneumatic impactor given on the midline. The skin is closed with surgical clips and the animals are constantly monitored until awake from anesthesia and then hourly for the next 4 hours. […] Performance on rotorod is tested at 24 hours post impaction and then every day for 5 days and data is presented as described. Groups of 12 mice are used for each compound at 0.5×MTD. […] Novel peptides and non-peptide analogs are also given by tail vein injection.
Daily Rotarod (RR) testing was used to assess short term motor and cerebellar deficit following head injury (Hamm et al., 1994). Mice were held by their tails and placed on the RR facing the wall by using gentle swinging motion while running in a constant speed mode.

peritoneal macrophages = test: Peritoneal macrophage production of NO, TNFα and IL-6 induced by MOG or LPS/IFN-γ; assay type: cell-based, mouse
Method: For this purpose, three mice with clinical scores of 0 and three with clinical scores of 4 at 30 dpi (day post-immunization) were used for preparation of peritoneal macrophage cultures. Macrophages were collected after peritoneal lavage with 3 ml heparin (10 U/ml)-containing PBS and then seeded to 96-well microplates at a density of 1×10^5 cells/well in Dulbecco's MEM containing 10% fetal bovine serum, 2 mM L-glutamine serum, 1% HEPES and 100 U/ml penicillin and 100 μg/ml streptomycin, 37° C. in a humidified incubator with 5% CO2. 24 h later, the serum-containing medium was removed and cells were washed once with serum-free medium. To examine the differentiated response of macrophage to immune stimulators, macrophages obtained from mice with clinical scores of 0 or 4 were exposed to serial concentrations of IFN-γ/LPS or MOG35-55 peptide. […] Media were collected at 45 h or 72 h, and analyzed by ELISA for […] and IL-6 or for nitric oxide (NO) as detailed below.
As the stable end product of nitric oxide release, nitrite levels in conditioned media were determined by injecting 50 μl media sample into a Sievers 280 NOA analyzer (Boulder, Colo., USA). Total protein (μg/well) was measured using the BCA method (Pierce, Rockford, Ill., USA) according to manufacturer's instructions with BSA as standard. BCA values were measured using a Molecular Devices Thermomax Microplate Reader (Menlo Park, Calif., USA) at OD562. Nitric oxide levels ere expressed as μM NO2—/mg protein.
For cytokine assays, supernatants were collected 45 h after […]/LPS or MOG treatments and quantitative ELISAs using selected pairs of monoclonal antibodies (as recommended by the manufacturer Biosource) were performed to quantify the cytokines, TNF-α and IL-6. For TNF-α ELISA, 96-well ELISA plates were pre-coated with rabbit anti-mouse polyclonal to TNF-α as capture antibodies for 18 h at 2-8° C. and then blocked for 2 h at room temperature. The wells were incubated with samples or mouse TNF-α standards. Following incubation for 2 h at room temperature, the wells were washed, after which hamster anti-mouse TNF-α biotinylated secondary antibody and horseradish peroxidase conjugate were added. Tetramethylbenzidine (TMB) solution was then added, and peroxidase-catalyzed color change was stopped by acidification with 2 NH2SO4. The plates were scanned at wavelength 450 nm and the absorbance were measured. The results are expressed as the mean concentration (pg/ml) ±SEM.
For IL-6 ELISA, rat anti-mouse monoclonal to IL-6 was used as capture antibody, and biotinylated rat anti-mouse monoclonal to IL-6 as detection antibody. The rest of procedure is identical to that of TNF-α ELISA.

[3] = tested on: mice infected with C. rodentium; test: C. rodentium colitis; assay type: in vivo; details: for Colon wt (% Total Body wt) / Histology Score / Body wt (% Total Body wt): WT mice, 10 days; for Body wt (% Total Body wt): 0.1% BEC or 2.5% DFMO
Source text: C. rodentium colitis: Of the two existing mouse models (Gobert A P et al., 2004; Cheng Y. et al., 2003), the C. rodentium model was selected because it produces a Th1-predominant mucosal inflammation that has histologic changes similar to human IBD (Higgins L M et al., 1999). In this model, mice are infected by oral gavage with C. rodentium (Gobert A P et al., 2004), a gram negative pathogenic bacterium that is the rodent equivalent of enteropathogenic E. coli that causes diarrhea in humans.
Since arginase I and iNOS were both abundantly expressed in the colitis tissues and L-Arg was completely metabolized, we investigated the effect of administration of 1% L-Arg in the drinking water. In wild type (WT) mice, C. rodentium colitis induced a high level of mortality that began on day 9 post-infection (FIG. 31A). In WT animals treated with L-Arg, mortality was inhibited by 42% and 62% compared to mice receiving water alone, after 12 and 14 days of infection, respectively (FIG. 31A). By Cox regression analysis, WT mice treated with L-Arg had only a 31% hazard of death compared with mice receiving water alone (p<0.0009). In iNOS^−/− mice, no deaths were observed, with or without L-Arg (FIG. 31A). […] Note that the weight loss of WT mice is underestimated, since only the weights of animals still alive could be included. […] There was an additive effect of iNOS deletion and L-Arg administration, with a 68% decrease in colon weight. Neither iNOS deletion nor L-Arg treatment affected colon weight in uninfected control mice. Importantly, these changes were closely paralleled by changes in colon histology (FIG. 32).
In uninfected control mice, BEC or DFMO had no effect (Table I). […] In fact, experiments had to be terminated early at 10 days post-infection, because of deaths and severe disease at this point.

apoE 130-147: truncated apoE peptide, residues 130-147 (TEELRVRLASHLRKLRKR; UniProt P02649 148-165, looked up, fragment)
Activity at 25 μM in suppression of NO / TNFα release (BV2 microglial cells): failed to show activity

Ac-RRLSYSRRRFLRVRLASHLRKLRKRLL-NH2 (N-terminus and C-terminus assumed) [SynB3]
IC50 [1]: 5.9 µM
IC50 ([1]; read-out: IC50 TNFα, in vitro): 5.1 µM
Rotorod latency, single tail vein injection 2 hours post TBI ([2]; 2 hours post traumatic brain injury): significantly improves outcome from head trauma
In vivo Therapeutic window time expanded? [2]: Yes; tested at 4 X

RQIKIWFQNRRMKWKK (Protein transduction domain conjugate Antp) [antennapedia prefix peptide, portion of antennapedia that serves as a prefix to COG133, reference compound]
Inhibition of cytokine production induced by MOG or LPS/IFN-γ (peritoneal macrophages): showed no activity

ApoE 135-149: truncated apoE peptide, residues 135-149 (VRLASHLRKLRKRLL; UniProt P02649 153-167, looked up, fragment)
Fold less potent than apoE 130-150 (BV2 microglial cells): 5 fold

Ac-ASHLRKL-Aib-KRLL-NH2 (Ac-ASHLRKL[Aib]KRLL-NH2; SMILES CC(=O)N[C@@H](C)C(=O)N[C@@H](CO)C(=O)N[C@@H](Cc1c[nH]cn1)C(=O)N[C@@H](CC(C)C)C(=O)N[C@@H](CCCNC(=N)N)C(=O)N[C@@H](CCCCN)C(=O)N[C@@H](CC(C)C)C(=O)NC(C)(C)C(=O)N[C@@H](CCCCN)C(=O)N[C@@H](CCCNC(=N)N)C(=O)N[C@@H](CC(C)C)C(=O)N[C@@H](CC(C)C)C(N)=O) [COG432]
Rotorod performance (100% is performance prior to TBI) ([2]; 4 mg/kg, started 2 hours post TBI, day 5 post TBI): about 80%

Ac-RGGRLAYLRRRWAVLGRLRVRLASHLRKLRKRLL-NH2 (N-terminus and C-terminus assumed) [SynB5]
IC50 [1]: 3.2 µM
IC50 ([1]; read-out: IC50 TNFα, in vitro): 4.2 µM
In vivo Therapeutic window time expanded? [2]: No; Tested at 6 X

Ac-RRRRRRRRLRVRLASHLRKLRKRLL-NH2 (N-terminus and C-terminus assumed) [polyArg (8R)]
IC50 [1]: 4 µM
IC50 ([1]; read-out: IC50 TNFα, in vitro): 4.2 µM

apoE 136-149: truncated apoE peptide, residues 136-149 (RLASHLRKLRKRLL; UniProt P02649 154-167, looked up, fragment)
Fold less potent than apoE 130-150 (BV2 microglial cells): 8 fold

CSCC[C@H](NC(=O)[C@H](CCCNC(=N)N)NC(=O)[C@H](CCCNC(=N)N)NC(C)=O)C(=O)N[C@@H](CCCCN)C(=O)N[C@@H](Cc1c[nH]c2ccccc12)C(=O)N[C@@H](CCCCN)C(=O)N[C@@H](CCCCN)C(=O)N[C@@H](CC(C)C)C(=O)N[C@@H](CCCNC(=N)N)C(=O)N[C@H](C(=O)N[C@@H](CCCNC(=N)N)C(=O)N[C@@H](CC(C)C)C(=O)N[C@@H](C)C(=O)N[C@@H](CO)C(=O)N[C@@H](Cc1c[nH]cn1)C(=O)N[C@@H](CC(C)C)C(=O)N[C@@H](CCCNC(=N)N)C(=O)N[C@@H](CCCCN)C(=O)N[C@@H](CC(C)C)C(=O)N[C@@H](CCCNC(=N)N)C(=O)N[C@@H](CCCCN)C(=O)N[C@@H](CCCNC(=N)N)C(=O)N[C@@H](CC(C)C)C(=O)N[C@@H](CC(C)C)C(N)=O)C(C)C [antp (52-58)]
IC50 [1]: 11 µM

NCCCC(N)(C(=O)O)C(F)F (centres unmarked) [DFMO, -difluoromethylornithine]
Colon wt (% Total Body wt) ([3]; C. rodentium): 1.35 ± 0.12^b,d % Total Body wt
Histology Score ([3]; C. rodentium): 9.54 ± 0.68^b,d
Body wt (% Total Body wt) ([3]; C. rodentium): 78.6 ± 0.4^b,c % Total Body wt
Colon wt (% Total Body wt) ([3]; PBS (uninfected)): 0.61 ± 0.07 % Total Body wt
Histology Score ([3]; PBS (uninfected)): 0.75 ± 0.25
Body wt (% Total Body wt) ([3]; PBS (uninfected)): 101.3 ± 2.6 % Total Body wt
Survival of C. rodentium-infected mice ([3]; in the drinking water): significant loss of survival
Effect in uninfected control mice ([3]; mouse, in vivo): had no effect

ApoE 139-149: truncated apoE peptide, residues 139-149 (SHLRKLRKRLL; UniProt P02649 157-167, looked up, fragment)
Activity at 25 μM in suppression of NO / TNFα release (BV2 microglial cells): failed to show activity

apoE 130-148: truncated apoE peptide, residues 130-148 (TEELRVRLASHLRKLRKRL; UniProt P02649 148-166, looked up, fragment)
Activity at 25 μM in suppression of NO / TNFα release (BV2 microglial cells): failed to show activity

apoE 134-149: truncated apoE peptide, residues 134-149 (RVRLASHLRKLRKRLL; UniProt P02649 152-167, looked up, fragment)
Fold less potent than apoE 130-150 (BV2 microglial cells): 2.5 fold

Ac-ASHLRKLRKRLL-NH2 [apoE 138-149]
Activity at 25 μM in suppression of NO / TNFα release (BV2 microglial cells): failed to show activity

LRVRLASHLRKLRKRLA [L149A]
EC50 (BV2 microglial cells; read-out: Structure activity in the COG133 peptide from single amino acid replacements, binding and/or suppression of NO or TNFα release, compared with 3.5 μM EC50 of COG133): > 3.5 µM

apoE 137-149: truncated apoE peptide, residues 137-149 (LASHLRKLRKRLL; UniProt P02649 155-167, looked up, fragment)
Activity at 25 μM in suppression of NO / TNFα release (BV2 microglial cells): failed to show activity
